Test results from ChEMBL document CHEMBL3046245, “Effects of Ginkgo biloba constituents on fruit-infesting behavior of codling moth (Cydia pomonella) in apples” (2011).
Calls of active or inactive are those of the source. The rule behind the calls is not given here.

Tests used:
Cydia pomonella [1] = assay: Inhibition of fruit-infesting behavior of Cydia pomonella (codling moth) neonates infested in apple fruit plugs assessed as feeding deterrence index at 1 mg/mL; type: functional
Cydia pomonella [2] = assay: Inhibition of fruit-infesting behavior of Cydia pomonella (codling moth) neonates infested in apple fruit plugs assessed as feeding deterrence index at 30 mg/mL; type: functional, organism-based
Cydia pomonella [3] = assay: Inhibition of fruit-infesting behavior of Cydia pomonella (codling moth) neonates infested in apple fruit plugs assessed as feeding deterrence index at 0.1 mg/mL; type: functional
Cydia pomonella [4] = assay: Inhibition of fruit-infesting behavior of Cydia pomonella (codling moth) neonates infested in apple fruit plugs assessed as feeding deterrence index at 10 mg/mL; type: functional
Cydia pomonella [5] = assay: Inhibition of fruit-infesting behavior of Cydia pomonella (codling moth) neonates infested in apple fruit plugs assessed as feeding deterrence index at 5 mg/mL; type: functional
Cydia pomonella [6] = assay: Inhibition of fruit-infesting behavior of Cydia pomonella (codling moth) neonates infested in apple fruit plugs assessed as feeding deterrence index at 2 mg/mL; type: functional
Cydia pomonella [7] = assay: Inhibition of fruit-infesting behavior of Cydia pomonella (codling moth) neonates infested in apple fruit plugs assessed as feeding deterrence index at 0.5 mg/mL; type: functional
Cydia pomonella [8] = assay: Inhibition of fruit-infesting behavior of Cydia pomonella (codling moth) neonates infested in apple fruit plugs assessed as feeding deterrence index at 0.2 mg/mL; type: functional
Cydia pomonella [9] = assay: Inhibition of fruit-infesting behavior of Cydia pomonella (codling moth) neonates infested in apple fruit plugs assessed as feeding deterrence index at 0.001 mg/mL; type: functional
Cydia pomonella [10] = assay: Inhibition of fruit-infesting behavior of Cydia pomonella (codling moth) neonates infested in apple fruit plugs assessed as feeding deterrence index at 0.01 mg/mL; type: functional
Cydia pomonella [11] = assay: Inhibition of fruit-infesting behavior of Cydia pomonella (codling moth) neonates infested in apple fruit plugs assessed as feeding deterrence index at 3 mg/mL; type: functional
Cydia pomonella [12] = assay: Inhibition of fruit-infesting behavior of Cydia pomonella (codling moth) neonates infested in apple fruit plugs assessed as feeding deterrence index at 60 mg/mL; type: functional, organism-based

O=c1c(O)c(-c2ccc(O)c(O)c2)oc2cc(O)cc(O)c12
FDI (Cydia pomonella [1]): inactive
FDI (Cydia pomonella [2]): inactive
FDI (Cydia pomonella [3]): inactive
FDI (Cydia pomonella [4]): inactive

CCCCCCCCCCCCCCCc1cccc(O)c1C(=O)O [ANACARDIC ACID]
FDI (Cydia pomonella [5]): 81.8%
FDI (Cydia pomonella [1]): 91.7%
FDI (Cydia pomonella [6]): 73.7%
FDI (Cydia pomonella [7]): 26.7%
FDI (Cydia pomonella [8]): 25%

CC(C)(C)[C@]1(O)CC2OC(=O)CC23C(=O)OC2OC(=O)[C@H](O)C231 (some centres undefined) [BILOBALIDE]
FDI (Cydia pomonella [1]): 50%
FDI (Cydia pomonella [9]): 0%
FDI (Cydia pomonella [3]): 56.5%
FDI (Cydia pomonella [4]): 75%
FDI (Cydia pomonella [10]): 23.5%

CCCCCC/C=C\CCCCCCCc1cccc(O)c1C(=O)O [GINGKOLIC ACID]
FDI (Cydia pomonella [5]): 50%
FDI (Cydia pomonella [1]): 41.7%
FDI (Cydia pomonella [4]): 63.2%
FDI (Cydia pomonella [7]): 18.8%

CCCCCCCCCCCCCc1cccc(O)c1C(=O)O [GINKGOLIC ACID 13:0]
FDI (Cydia pomonella [5]): 0%
FDI (Cydia pomonella [1]): 26.1%
FDI (Cydia pomonella [4]): 42.1%
FDI (Cydia pomonella [7]): 23.5%

CCCCCC/C=C\CCCCCCCCCc1cccc(O)c1C(=O)O [GINKGOLIC ACID 17:1]
FDI (Cydia pomonella [5]): 54.5%
FDI (Cydia pomonella [1]): 5.3%
FDI (Cydia pomonella [4]): 60%
FDI (Cydia pomonella [7]): 37.5%

C[C@@H]1C(=O)O[C@H]2C[C@@]34[C@H]5C[C@@H](C(C)(C)C)[C@]36[C@@H](OC(=O)[C@@H]6O)O[C@@]4(C(=O)O5)[C@]21O [GINKGOLIDE A]
FDI (Cydia pomonella [1]): 40.4%
FDI (Cydia pomonella [3]): 7.69%
FDI (Cydia pomonella [4]): 38.5%

C[C@@H]1C(=O)O[C@H]2[C@H](O)[C@@]34O[C@@H]5OC(=O)[C@H](O)[C@@]56[C@H](C(C)(C)C)[C@H](O)C(OC3=O)[C@]64[C@@]12O (some centres undefined) [GINKGOLIDE C]
FDI (Cydia pomonella [1]): 20%
FDI (Cydia pomonella [3]): 11.8%
FDI (Cydia pomonella [4]): 10%

C[C@@H]1C(=O)O[C@H]2[C@H](O)[C@@]34[C@H]5C[C@@H](C(C)(C)C)[C@]36[C@@H](OC(=O)[C@@H]6O)O[C@@]4(C(=O)O5)[C@@]12O [GINKOLIDE B]
FDI (Cydia pomonella [1]): 26.1%
FDI (Cydia pomonella [3]): 12.5%
FDI (Cydia pomonella [4]): 76%

COc1cc(-c2oc3cc(O)cc(O)c3c(=O)c2O)ccc1O [ISORHAMNETIN]
FDI (Cydia pomonella [1]): inactive
FDI (Cydia pomonella [11]): 32.1%
FDI (Cydia pomonella [3]): 10.3%
FDI (Cydia pomonella [10]): 21.7%

O=c1c(O)c(-c2ccc(O)cc2)oc2cc(O)cc(O)c12 [KAEMPFEROL]
FDI (Cydia pomonella [1]): 25%
FDI (Cydia pomonella [2]): inactive
FDI (Cydia pomonella [3]): inactive
FDI (Cydia pomonella [4]): inactive
FDI (Cydia pomonella [12]): inactive
